Reference: ChEMBL document CHEMBL4387706, “Discovery of Novel Spiroindoline Derivatives as Selective Tankyrase Inhibitors” (J Med Chem, 2019)
≈ marks a conversion by molar mass, not a printed value. Calls of active or inactive are those of the source. The rule behind the calls is not given here.

Experiments:
[1] = target: Poly [ADP-ribose] polymerase 1 (Homo sapiens, UniProt P09874)
Description: Inhibition of recombinant human PARP1 expressed in Escherichia coli assessed as reduction in auto-PARylation using histone as substrate measured after 45 mins in presence of biotinylated-NAD+ by ELISA

RKO [2] = assay: Antiproliferative activity against human RKO cells assessed inhibition of cell growth measured after 5 days by MTT assay; assay type: functional; settings: 120 h
physchem = settings: phosphate buffer, pH 7.4
[3] = target: Tankyrase 1/2 (Homo sapiens) (UniProt Q9H2K2+O95271); assay: Inhibition of TNKS/TNKS2 in human COLO320DM cells assessed as upregulation of AXIN2 expression at 0.1 uM measured after 16 hrs by Western blot analysis relative to G007-LK; assay type: cell-based
COLO 320DM [4] = assay: cells; settings: Homo sapiens, 96 h
Description: Antiproliferative activity against human COLO320DM cells assessed as inhibition of cell growth measured after 4 days by CellTiter-Glo assay

COLO 320DM [5] = assay: Antiproliferative activity against human COLO320DM cells assessed inhibition of cell growth measured after 5 days by MTT assay; assay type: functional; settings: 120 h
[6] = Permeability of the compound by PAMPA; assay type: ADME; settings: read-out: permeability
Tankyrase 1/2 = target: T1, Tankyrase 1/2 (Homo sapiens, UniProt Q9H2K2+O95271)
T1 sequence (Q9H2K2 whole entry): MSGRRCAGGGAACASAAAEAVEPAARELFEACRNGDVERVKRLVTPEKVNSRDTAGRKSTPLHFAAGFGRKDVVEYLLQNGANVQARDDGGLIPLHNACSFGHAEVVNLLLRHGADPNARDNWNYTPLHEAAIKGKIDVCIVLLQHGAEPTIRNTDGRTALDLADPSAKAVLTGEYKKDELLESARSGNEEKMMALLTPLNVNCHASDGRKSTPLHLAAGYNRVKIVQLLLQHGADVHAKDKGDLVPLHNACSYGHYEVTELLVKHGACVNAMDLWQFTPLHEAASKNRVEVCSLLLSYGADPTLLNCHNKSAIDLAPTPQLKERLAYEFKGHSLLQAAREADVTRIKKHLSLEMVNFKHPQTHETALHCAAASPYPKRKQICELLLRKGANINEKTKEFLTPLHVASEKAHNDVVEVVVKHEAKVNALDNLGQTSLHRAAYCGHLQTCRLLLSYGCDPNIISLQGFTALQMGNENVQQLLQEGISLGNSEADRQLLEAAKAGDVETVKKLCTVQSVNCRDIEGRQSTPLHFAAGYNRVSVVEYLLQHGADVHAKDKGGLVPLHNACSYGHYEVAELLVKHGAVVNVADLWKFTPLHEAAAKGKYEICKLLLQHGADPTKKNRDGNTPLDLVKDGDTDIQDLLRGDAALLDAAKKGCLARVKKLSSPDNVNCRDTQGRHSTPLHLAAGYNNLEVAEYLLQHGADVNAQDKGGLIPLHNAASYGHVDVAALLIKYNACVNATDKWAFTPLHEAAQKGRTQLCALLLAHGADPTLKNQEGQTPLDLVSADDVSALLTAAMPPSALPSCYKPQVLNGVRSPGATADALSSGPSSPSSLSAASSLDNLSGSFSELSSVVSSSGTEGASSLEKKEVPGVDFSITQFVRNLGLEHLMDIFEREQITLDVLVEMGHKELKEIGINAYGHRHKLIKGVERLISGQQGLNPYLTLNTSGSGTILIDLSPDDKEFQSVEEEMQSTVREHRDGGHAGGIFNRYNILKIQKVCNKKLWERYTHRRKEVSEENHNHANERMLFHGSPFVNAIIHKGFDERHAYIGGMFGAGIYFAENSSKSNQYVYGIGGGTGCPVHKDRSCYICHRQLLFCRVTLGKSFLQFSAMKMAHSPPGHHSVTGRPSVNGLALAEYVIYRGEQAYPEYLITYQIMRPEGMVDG
T1 sequence (O95271 whole entry): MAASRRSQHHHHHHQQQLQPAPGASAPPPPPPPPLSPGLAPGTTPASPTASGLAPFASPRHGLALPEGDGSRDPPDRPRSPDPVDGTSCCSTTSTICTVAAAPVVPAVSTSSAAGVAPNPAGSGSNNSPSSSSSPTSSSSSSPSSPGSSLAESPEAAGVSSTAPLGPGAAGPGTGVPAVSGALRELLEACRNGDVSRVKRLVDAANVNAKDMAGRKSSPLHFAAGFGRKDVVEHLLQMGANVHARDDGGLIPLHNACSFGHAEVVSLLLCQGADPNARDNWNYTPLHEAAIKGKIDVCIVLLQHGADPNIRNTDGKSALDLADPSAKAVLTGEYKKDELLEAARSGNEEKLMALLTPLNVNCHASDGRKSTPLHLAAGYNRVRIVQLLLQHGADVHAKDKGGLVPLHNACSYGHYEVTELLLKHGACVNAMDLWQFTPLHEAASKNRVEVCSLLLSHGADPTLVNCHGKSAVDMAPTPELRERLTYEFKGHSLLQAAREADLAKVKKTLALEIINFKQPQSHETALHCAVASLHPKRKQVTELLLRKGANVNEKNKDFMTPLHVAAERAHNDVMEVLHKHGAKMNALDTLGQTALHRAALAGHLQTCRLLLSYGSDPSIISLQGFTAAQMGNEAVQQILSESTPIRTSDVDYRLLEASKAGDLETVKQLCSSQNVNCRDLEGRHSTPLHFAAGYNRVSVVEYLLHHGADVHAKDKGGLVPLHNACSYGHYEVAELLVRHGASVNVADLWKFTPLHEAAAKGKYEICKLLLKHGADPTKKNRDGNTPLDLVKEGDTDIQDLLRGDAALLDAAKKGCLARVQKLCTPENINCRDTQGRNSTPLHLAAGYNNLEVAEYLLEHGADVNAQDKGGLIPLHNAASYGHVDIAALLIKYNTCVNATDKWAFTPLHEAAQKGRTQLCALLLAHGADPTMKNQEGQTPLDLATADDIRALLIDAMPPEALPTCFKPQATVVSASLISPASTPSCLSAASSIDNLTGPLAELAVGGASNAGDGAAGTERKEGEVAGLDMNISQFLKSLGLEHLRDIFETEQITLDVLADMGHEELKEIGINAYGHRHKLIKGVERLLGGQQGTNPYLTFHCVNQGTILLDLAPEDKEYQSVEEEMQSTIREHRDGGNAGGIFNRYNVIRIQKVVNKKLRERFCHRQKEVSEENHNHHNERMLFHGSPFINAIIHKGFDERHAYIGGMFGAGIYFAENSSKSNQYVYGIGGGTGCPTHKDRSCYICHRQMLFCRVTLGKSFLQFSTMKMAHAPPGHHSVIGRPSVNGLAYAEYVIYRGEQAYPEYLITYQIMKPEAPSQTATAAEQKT
Description: Inhibition of TNKS/TNKS2 (unknown origin) expressed in human DLD1 cells assessed as reduction in Wnt-signaling measured after 24 hrs by TCF-luciferase reporter gene assay

[7] = target: T2, Poly [ADP-ribose] polymerase tankyrase-1 (Homo sapiens, UniProt O95271)
T2 sequence (O95271 whole entry): T1 sequence (O95271 whole entry)
Description: Inhibition of recombinant human N-terminal TEV cleavage site-fused/FLAG-poly his-tagged TNKS SAM-PARP domain (1024 to 1327 residues) expressed in Escherichia coli assessed as reduction in auto-PARylation preincubated for 10 mins followed by biotinylated-NAD+ addition and measured after 45 mins by ELISA

[8] = target: T3, Poly [ADP-ribose] polymerase tankyrase-2 (Homo sapiens, UniProt Q9H2K2)
T3 sequence (Q9H2K2 whole entry): T1 sequence (Q9H2K2 whole entry)
Description: Inhibition of recombinant human N-terminal TEV cleavage site-fused/FLAG-poly his-tagged TNKS2 SAM-PARP domain (613 to 1166 residues) expressed in Escherichia coli assessed as reduction in auto-PARylation preincubated for 10 mins followed by biotinylated-NAD+ addition and measured after 45 mins by ELISA

[9] = Protein binding in human serum assessed as unbound fraction at 1 uM measured after 24 hrs by LC-MS/MS analysis; assay type: ADME, cell-free
[10] = AUC (infinity) in ICR mouse at 50 mg/kg, ip; assay type: ADME, organism-based; set-up: dose 50 mg/kg, route intraperitoneal, time infinity; settings: in vivo
RKO [11] = assay: Antiproliferative activity against human RKO cells assessed reduction in cell viability at 0.3 uM measured after 5 days by MTT assay; assay type: functional, cell-based
[12] = Cmax in ICR mouse at 50 mg/kg, ip; assay type: ADME, organism-based; set-up: dose 50 mg/kg, route intraperitoneal; settings: in vivo
in vitro [13] = settings: mouse, liver microsomes
Description: Stability in mouse liver microsomes assessed as parent compound remaining at 1 uM measured after 30 mins in presence of NADPH by LC-MS/MS analysis

in vitro [14] = settings: human, liver microsomes
Description: Stability in human liver microsomes assessed as parent compound remaining at 1 uM measured after 30 mins in presence of NADPH by LC-MS/MS analysis

[15] = Half life in ICR mouse at 50 mg/kg, ip; assay type: ADME, organism-based; settings: in vivo
[16] = Protein binding in mouse serum assessed as unbound fraction at 1 uM measured after 24 hrs by LC-MS/MS analysis; assay type: ADME, cell-free

Poly [ADP-ribose] polymerase 1, sequence (P09874 whole entry): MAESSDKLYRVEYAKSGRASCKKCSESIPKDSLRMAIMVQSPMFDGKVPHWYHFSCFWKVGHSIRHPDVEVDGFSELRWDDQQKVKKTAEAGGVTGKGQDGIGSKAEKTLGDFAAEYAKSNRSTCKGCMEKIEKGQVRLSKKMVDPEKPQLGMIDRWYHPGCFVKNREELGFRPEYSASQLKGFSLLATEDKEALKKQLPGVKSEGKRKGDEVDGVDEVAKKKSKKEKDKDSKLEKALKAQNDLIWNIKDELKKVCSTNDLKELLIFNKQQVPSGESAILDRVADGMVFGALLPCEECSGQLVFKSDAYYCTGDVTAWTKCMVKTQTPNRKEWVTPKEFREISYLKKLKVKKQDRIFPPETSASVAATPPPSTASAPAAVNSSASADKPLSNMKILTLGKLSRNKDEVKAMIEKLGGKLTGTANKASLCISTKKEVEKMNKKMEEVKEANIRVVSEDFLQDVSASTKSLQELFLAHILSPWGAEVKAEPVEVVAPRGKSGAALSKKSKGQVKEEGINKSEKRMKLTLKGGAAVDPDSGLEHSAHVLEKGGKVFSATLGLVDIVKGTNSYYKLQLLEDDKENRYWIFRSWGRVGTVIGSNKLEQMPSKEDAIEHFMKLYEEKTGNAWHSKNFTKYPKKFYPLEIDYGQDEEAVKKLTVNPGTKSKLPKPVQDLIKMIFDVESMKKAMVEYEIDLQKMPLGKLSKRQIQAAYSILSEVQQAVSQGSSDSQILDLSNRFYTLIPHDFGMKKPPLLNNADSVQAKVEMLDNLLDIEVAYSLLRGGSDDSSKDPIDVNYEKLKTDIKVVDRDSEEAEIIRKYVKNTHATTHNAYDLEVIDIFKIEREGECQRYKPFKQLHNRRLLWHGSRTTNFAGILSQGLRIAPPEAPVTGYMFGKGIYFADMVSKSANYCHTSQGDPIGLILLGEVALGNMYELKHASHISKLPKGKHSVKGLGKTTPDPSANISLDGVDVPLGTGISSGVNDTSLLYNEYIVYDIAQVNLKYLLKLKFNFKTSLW

Row | IC50 [1] | solubility at 1 h, 200 µM (physchem) | fold change (FC) [3] | GI50 (COLO 320DM [4]) | GI50 (COLO 320DM [5]) | Papp [6] | IC50 (Tankyrase 1/2) | IC50 [7] | IC50 [8] | fraction unbound at 24 h, 1 µM [9] | AUC(0-inf) [10] | Cmax [12] | remaining at 0.5 h, 1 µM (in vitro [13]) | remaining at 0.5 h, 1 µM (in vitro [14]) | half-life [15] | fraction unbound at 24 h, 1 µM [16] | Fu ([9]; 24 h, 1 µM) | Compound | GI50 (RKO [2]) | Activity (RKO [11])
1 | > 20000 nM | 78.7 µg/mL (≈ 200 µM) | 0.98 | 12700 nM | 2670 nM | 2.9 ×10⁻⁶ cm/s | 918 nM | 19 nM | 26 nM |  |  |  |  |  |  |  |  | O=C1N(CCO)c2ccccc2C12CCN(c1nc3c(c(=O)[nH]1)CCCC3)CC2 | 3400 nM | 
2 | > 20000 nM | 76.9 µg/mL (≈ 179 µM) | 3.93 | 2400 nM | 470 nM | 7.9 ×10⁻⁶ cm/s | 79.4 nM | 10 nM | 15.1 nM | 0.017 | 106 µM·h | 48.1 µM | 39.1% | 39.5% | 3.6 h | 0.077 |  | O=C1N(CCO)c2cc(F)cc(F)c2C12CCN(c1nc3c(c(=O)[nH]1)CCCC3)CC2 | > 10000 nM | Active
3 | > 20000 nM | 2.5 µg/mL (≈ 6.03 µM) | 4.86 | 1500 nM | 300 nM |  | 52.9 nM | 16.6 nM | 17 nM | 0.009 | 667 µM·h | 75.6 µM | 1.1% | 6.1% | 4.8 h | 0.01 |  | O=c1[nH]c(N2CCC3(CC2)CN(CCO)c2cccc(Cl)c23)nc2c1CCCC2 | > 10000 nM | Active
4 | > 20000 nM | 55.9 µg/mL (≈ 121 µM) | 8.03 | 2600 nM | 450 nM | 43 ×10⁻⁶ cm/s | 19.8 nM | 9 nM | 9.5 nM |  |  |  |  |  |  |  |  | O=C1N(CCO)c2cc(Cl)cc(Cl)c2C12CCN(c1nc3c(c(=O)[nH]1)CCCC3)CC2 | 2610 nM | 
5 |  | 0.4 µg/mL (≈ 1.28 µM) |  | 17000 nM |  | 3.24 ×10⁻⁶ cm/s |  |  |  |  |  |  | 0% | 78.4% |  | 0.086 | 0.6% | Oc1nc(-c2ccc(C(F)(F)F)cc2)nc2c1CSCC2 |  | 
6 | > 20000 nM | > 76.1 µg/mL | 0.98 | 3900 nM | 1770 nM | 17.4 ×10⁻⁶ cm/s | 362 nM | 49.3 nM | 26.9 nM |  |  |  |  |  |  |  |  | O=c1[nH]c(N2CCC3(CC2)CN(CCO)c2ccccc23)nc2c1CCCC2 | 220 nM | 
7 | > 20000 nM | 84.5 µg/mL (≈ 197 µM) | 5.75 | 1000 nM | 250 nM | 1.1 ×10⁻⁶ cm/s | 13.9 nM | 4.4 nM | 6.8 nM | 0.018 | 157 µM·h | 5.35 µM | 19.1% | 28.9% | 4.1 h | 0.042 |  | O=C1N(CCO)c2cccc(Cl)c2C12CCN(c1nc3c(c(=O)[nH]1)CCCC3)CC2 | > 10000 nM | Active
8 | > 20000 nM | 74.6 µg/mL (≈ 187 µM) | 3.63 | 1400 nM | 260 nM | 7.6 ×10⁻⁶ cm/s | 83.9 nM | 9.2 nM | 11.8 nM |  |  |  |  |  |  |  |  | O=c1[nH]c(N2CCC3(CC2)CN(CCO)c2cccc(F)c23)nc2c1CCCC2 | 90 nM | 
9 | > 20000 nM | 5.2 µg/mL (≈ 11.6 µM) | 4.03 | 2900 nM | 4650 nM |  | 119 nM | 18.2 nM | 16.4 nM |  |  |  |  |  |  |  |  | O=c1[nH]c(N2CCC3(CC2)CN(CCO)c2cc(Cl)cc(Cl)c23)nc2c1CCCC2 | 40 nM | 
10 | > 20000 nM | 80.1 µg/mL (≈ 194 µM) | 4.1 | 1800 nM | 190 nM | 3.6 ×10⁻⁶ cm/s | 36.5 nM | 6.8 nM | 8.2 nM |  |  |  |  |  |  |  |  | O=C1N(CCO)c2cccc(F)c2C12CCN(c1nc3c(c(=O)[nH]1)CCCC3)CC2 | 2030 nM | 
